Source: patent US20210382058A1, “PATIENT SELECTION FOR TREATMENT OF MYC POSITIVE CANCERS WITH INDENOISOQUINOLINES” (Purdue Research Foundation, priority 2020, published 2021)
Like-named read-outs stand apart in the source and are kept apart here.

What was measured:
[1] = test system: MYC protein expression in MCF-7 breast cancer cells; test: Western blotting of MYC protein level in MCF-7 cells; format: cell-based, human; conditions: Homo sapiens, MCF7; western blotting, MCF-7 cells, 0.5, 1, 2, and 4 μM, 24 hours; read-out: MYC Inhibition
Method in brief: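 Immunoblotting with ECL detection quantified MYC, with GAPDH (1:2000) as reference and anti-MYC at 1:1000.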

NCI-60 cancer cell lines = test: NCI-60 cancer cell line drug screen (GI50, MGM); format: cell-based, human; conditions: Homo sapiens; for GI50: read-out: Antiproliferative Activities [GI50 (μM)]; for mean GI50 across NCI-60 panel (MGM): average of GI50 values across the entire panel of NCI-60 cancer cell lines
Procedure: Cancer cells were incubated with the test compounds at five concentrations ranging from 100 μM to 10 nM for 48 h. […] The approximate average of GI50 values across the entire panel of NCI-60 cancer cell lines for each compound was recorded as the MGM value.

human topoisomerase I = biological target: T1, human topoisomerase I (Homo sapiens, UniProt P11387); conditions: relative topoisomerase I inhibition levels, previously determined, six levels (0 - 5, +++++ = 5); cited from earlier work
T1 sequence (P11387 1-765): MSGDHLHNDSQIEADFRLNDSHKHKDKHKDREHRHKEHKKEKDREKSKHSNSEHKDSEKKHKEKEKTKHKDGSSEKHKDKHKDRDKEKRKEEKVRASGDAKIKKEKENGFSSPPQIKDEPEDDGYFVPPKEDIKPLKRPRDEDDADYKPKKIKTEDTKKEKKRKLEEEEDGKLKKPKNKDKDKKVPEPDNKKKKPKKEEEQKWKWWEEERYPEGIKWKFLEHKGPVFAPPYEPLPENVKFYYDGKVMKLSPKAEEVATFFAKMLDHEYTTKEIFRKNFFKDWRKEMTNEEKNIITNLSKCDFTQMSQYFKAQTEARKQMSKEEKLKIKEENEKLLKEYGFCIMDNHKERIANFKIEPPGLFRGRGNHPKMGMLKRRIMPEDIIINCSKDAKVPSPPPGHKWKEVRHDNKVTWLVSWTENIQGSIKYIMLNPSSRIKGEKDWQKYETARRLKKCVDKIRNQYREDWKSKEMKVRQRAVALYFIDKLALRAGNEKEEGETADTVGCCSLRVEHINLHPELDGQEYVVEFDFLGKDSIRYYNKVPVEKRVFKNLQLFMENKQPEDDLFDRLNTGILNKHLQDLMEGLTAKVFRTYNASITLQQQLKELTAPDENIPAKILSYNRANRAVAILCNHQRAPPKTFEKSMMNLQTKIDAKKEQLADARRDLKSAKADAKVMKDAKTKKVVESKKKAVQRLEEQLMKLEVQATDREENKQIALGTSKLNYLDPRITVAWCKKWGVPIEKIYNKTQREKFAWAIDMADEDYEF

[2] = COLO 205, Colon Cancer, COLO 205
[3] = DU-145, Prostate Cancer, DU-145
[4] = HCC 2998, Colon Cancer, HCC-2998
[5] = HOP-62, Non-Small Cell Lung Cancer, HOP-62
[6] = HOP-92, Non-Small Cell Lung Cancer, HOP-92
[7] = Hs-578T, Breast Cancer, HS 578T
[8] = IGROV-1, Ovarian Cancer, IGROV1
[9] = MDA-MB-231, Breast Cancer, MDA-MB-231/ATCC
[10] = MDA-MB-435, Melanoma, MDA-MB-435
[11] = NCI-H23, Non-Small Cell Lung Cancer, NCI-H23
[12] = NCI-H322M, Non-Small Cell Lung Cancer, NCI-H322M
[13] = NCI-H460, Non-Small Cell Lung Cancer, NCI-H460
[14] = NCI-H522, Non-Small Cell Lung Cancer, NCI-H522
[15] = OVCAR-3, Ovarian Cancer, OVCAR-3
[16] = OVCAR-4, Ovarian Cancer, OVCAR-4
[17] = OVCAR-5, Ovarian Cancer, OVCAR-5
[18] = OVCAR-8, Ovarian Cancer, OVCAR-8
[19] = SK-OV-3, Ovarian Cancer, SK-OV-3

CN(C)CCCn1c2c(c3cccnc3c1=O)C(=O)c1ccccc1-2 [Compound 20]
minimal effective concentration [1]: 4 µM
GI50 (NCI-60 cancer cell lines; 786-0, Renal Cancer, 786-0): 1.16 µM
GI50 (NCI-60 cancer cell lines; A549, Non-Small Cell Lung Cancer, A549/ATCC): 0.59 µM
GI50 (NCI-60 cancer cell lines; ACHN, Renal Cancer, ACHN): 0.29 µM
GI50 (NCI-60 cancer cell lines; BT-549, Breast Cancer, BT-549): 1.67 µM
GI50 (NCI-60 cancer cell lines; CAKI-1, Renal Cancer, CAKI-1): 0.57 µM
GI50 (NCI-60 cancer cell lines; CCRF-CEM, Leukemia, CCRF-CEM): 1.37 µM
GI50 (NCI-60 cancer cell lines; [2]): 0.47 µM
GI50 (NCI-60 cancer cell lines; [3]): 1.89 µM
GI50 (NCI-60 cancer cell lines; [4]): 2.17 µM
GI50 (NCI-60 cancer cell lines; HCT-15, Colon Cancer, HCT-15): 1.03 µM
GI50 (NCI-60 cancer cell lines; HCT-116, Colon Cancer, HCT-116): 0.44 µM
GI50 (NCI-60 cancer cell lines; HL-60, Leukemia, HL-60(TB)): 1.8 µM
GI50 (NCI-60 cancer cell lines; [5]): 1.25 µM
GI50 (NCI-60 cancer cell lines; [6]): 1.42 µM
GI50 (NCI-60 cancer cell lines; HT-29, Colon Cancer, HT29): 1.01 µM
GI50 (NCI-60 cancer cell lines; [7]): 3.08 µM
GI50 (NCI-60 cancer cell lines; [8]): 1.91 µM
GI50 (NCI-60 cancer cell lines; K562, Leukemia, K-562): 1.42 µM
GI50 (NCI-60 cancer cell lines; KM12, Colon Cancer, KM12): 1.61 µM
GI50 (NCI-60 cancer cell lines; LOX IMVI, Melanoma, LOX IMVI): 0.81 µM
GI50 (NCI-60 cancer cell lines; Leukemia, SR): 0.31 µM
GI50 (NCI-60 cancer cell lines; MCF7, Breast Cancer, MCF7): 0.37 µM
GI50 (NCI-60 cancer cell lines; [9]): 2.58 µM
GI50 (NCI-60 cancer cell lines; [10]): 1.93 µM
GI50 (NCI-60 cancer cell lines; MDA-MB-468, Breast Cancer, MDA-MB-468): 1.57 µM
GI50 (NCI-60 cancer cell lines; MOLT-4, Leukemia, MOLT-4): 0.29 µM
GI50 (NCI-60 cancer cell lines; Melanoma, M14): 1.57 µM
GI50 (NCI-60 cancer cell lines; [11]): 1.86 µM
GI50 (NCI-60 cancer cell lines; NCI-H226, Non-Small Cell Lung Cancer, NCI-H226): 1.32 µM
GI50 (NCI-60 cancer cell lines; [12]): 2.47 µM
GI50 (NCI-60 cancer cell lines; [13]): 0.41 µM
GI50 (NCI-60 cancer cell lines; [14]): 1.84 µM
GI50 (NCI-60 cancer cell lines; [15]): 2.41 µM
GI50 (NCI-60 cancer cell lines; [16]): 1.93 µM
GI50 (NCI-60 cancer cell lines; [17]): 2.44 µM
GI50 (NCI-60 cancer cell lines; [18]): 0.95 µM
GI50 (NCI-60 cancer cell lines; Ovarian Cancer, NCl/ADR-RES): 2.72 µM
GI50 (NCI-60 cancer cell lines; Prostate Cancer, PC-3): 2.05 µM
GI50 (NCI-60 cancer cell lines; RPMI-8226, Leukemia, RPMI-8226): 1.84 µM
GI50 (NCI-60 cancer cell lines; RXF 393, Renal Cancer, RXF 393): 2.31 µM
GI50 (NCI-60 cancer cell lines; Renal Cancer, U0-31): 0.57 µM
GI50 (NCI-60 cancer cell lines; SF-268, CNS Cancer, SF-268): 2.15 µM
GI50 (NCI-60 cancer cell lines; SF-295, CNS Cancer, SF-295): 0.75 µM
GI50 (NCI-60 cancer cell lines; SF-539, CNS Cancer, SF-539): 0.85 µM
GI50 (NCI-60 cancer cell lines; SK-MEL-2, Melanoma, SK-MEL-2): 3.92 µM
GI50 (NCI-60 cancer cell lines; SK-MEL-5, Melanoma, SK-MEL-5): 1 µM
GI50 (NCI-60 cancer cell lines; SK-MEL-28, Melanoma, SK-MEL-28): 1.56 µM
GI50 (NCI-60 cancer cell lines; [19]): 2.22 µM
GI50 (NCI-60 cancer cell lines; SN12C, Renal Cancer, SN12C): 1.12 µM
GI50 (NCI-60 cancer cell lines; SNB-19, CNS Cancer, SNB-19): 1.75 µM
GI50 (NCI-60 cancer cell lines; SNB-75, CNS Cancer, SNB-75): 0.66 µM
GI50 (NCI-60 cancer cell lines; SW-620, Colon Cancer, SW-620): 0.46 µM
GI50 (NCI-60 cancer cell lines; T47D, Breast Cancer, T-47D): 2.04 µM
GI50 (NCI-60 cancer cell lines; TK-10, Renal Cancer, TK-10): 3.02 µM
GI50 (NCI-60 cancer cell lines; U-251, CNS Cancer, U251): 1.05 µM
GI50 (NCI-60 cancer cell lines; UACC-62, Melanoma, UACC-62): 1.3 µM
GI50 (NCI-60 cancer cell lines; UACC-257, Melanoma, UACC-257): 2.02 µM
mean GI50 across NCI-60 panel (MGM) (NCI-60 cancer cell lines): 1260 nM
Top1 Inhibiton (human topoisomerase I): +++ (strong inhibition, +++, MYC expression inhibited at 0.5 to 1.0 μM)

COc1cc2c(cc1O)-c1c(c3ccc([N+](=O)[O-])cc3c(=O)n1CCCn1ccnc1)C2=O [Compound 37]
minimal effective concentration [1]: 0.5 to 1 µM
GI50 (NCI-60 cancer cell lines; 786-0, Renal Cancer, 786-0): 0.33 µM
GI50 (NCI-60 cancer cell lines; ACHN, Renal Cancer, ACHN): 0.31 µM
GI50 (NCI-60 cancer cell lines; BT-549, Breast Cancer, BT-549): 0.35 µM
GI50 (NCI-60 cancer cell lines; CAKI-1, Renal Cancer, CAKI-1): 0.22 µM
GI50 (NCI-60 cancer cell lines; CCRF-CEM, Leukemia, CCRF-CEM): 0.66 µM
GI50 (NCI-60 cancer cell lines; [2]): 7.9 µM
GI50 (NCI-60 cancer cell lines; [3]): 0.33 µM
GI50 (NCI-60 cancer cell lines; [4]): 37.1 µM
GI50 (NCI-60 cancer cell lines; HCT-15, Colon Cancer, HCT-15): > 100 µM
GI50 (NCI-60 cancer cell lines; HCT-116, Colon Cancer, HCT-116): 0.74 µM
GI50 (NCI-60 cancer cell lines; HL-60, Leukemia, HL-60(TB)): 0.59 µM
GI50 (NCI-60 cancer cell lines; [5]): 0.59 µM
GI50 (NCI-60 cancer cell lines; [6]): 13.6 µM
GI50 (NCI-60 cancer cell lines; HT-29, Colon Cancer, HT29): 4.08 µM
GI50 (NCI-60 cancer cell lines; [7]): > 100 µM
GI50 (NCI-60 cancer cell lines; [8]): 11.3 µM
GI50 (NCI-60 cancer cell lines; K562, Leukemia, K-562): 2.25 µM
GI50 (NCI-60 cancer cell lines; KM12, Colon Cancer, KM12): 9.39 µM
GI50 (NCI-60 cancer cell lines; LOX IMVI, Melanoma, LOX IMVI): 0.3 µM
GI50 (NCI-60 cancer cell lines; Leukemia, SR): 0.03 µM
GI50 (NCI-60 cancer cell lines; MCF7, Breast Cancer, MCF7): 0.08 µM
GI50 (NCI-60 cancer cell lines; [9]): 18.1 µM
GI50 (NCI-60 cancer cell lines; [10]): 2.84 µM
GI50 (NCI-60 cancer cell lines; MOLT-4, Leukemia, MOLT-4): 0.24 µM
GI50 (NCI-60 cancer cell lines; Malme-3M, Melanoma, MALME-3M): 1.79 µM
GI50 (NCI-60 cancer cell lines; [11]): 0.68 µM
GI50 (NCI-60 cancer cell lines; [12]): 72.6 µM
GI50 (NCI-60 cancer cell lines; [13]): 0.24 µM
GI50 (NCI-60 cancer cell lines; [14]): 0.1 µM
GI50 (NCI-60 cancer cell lines; [15]): 1.35 µM
GI50 (NCI-60 cancer cell lines; [16]): 1.41 µM
GI50 (NCI-60 cancer cell lines; [17]): > 100 µM
GI50 (NCI-60 cancer cell lines; [18]): 0.89 µM
GI50 (NCI-60 cancer cell lines; Ovarian Cancer, NCl/ADR-RES): > 100 µM
GI50 (NCI-60 cancer cell lines; Prostate Cancer, PC-3): 7.22 µM
GI50 (NCI-60 cancer cell lines; RPMI-8226, Leukemia, RPMI-8226): 0.7 µM
GI50 (NCI-60 cancer cell lines; RXF 393, Renal Cancer, RXF 393): 1.35 µM
GI50 (NCI-60 cancer cell lines; SF-268, CNS Cancer, SF-268): 0.27 µM
GI50 (NCI-60 cancer cell lines; SF-295, CNS Cancer, SF-295): 0.33 µM
GI50 (NCI-60 cancer cell lines; SF-539, CNS Cancer, SF-539): 0.37 µM
GI50 (NCI-60 cancer cell lines; SK-MEL-2, Melanoma, SK-MEL-2): 30.8 µM
GI50 (NCI-60 cancer cell lines; SK-MEL-5, Melanoma, SK-MEL-5): 1.67 µM
GI50 (NCI-60 cancer cell lines; SK-MEL-28, Melanoma, SK-MEL-28): 16.4 µM
GI50 (NCI-60 cancer cell lines; [19]): 0.56 µM
GI50 (NCI-60 cancer cell lines; SN12C, Renal Cancer, SN12C): 0.42 µM
GI50 (NCI-60 cancer cell lines; SNB-19, CNS Cancer, SNB-19): 12.8 µM
GI50 (NCI-60 cancer cell lines; SNB-75, CNS Cancer, SNB-75): 2.97 µM
GI50 (NCI-60 cancer cell lines; SW-620, Colon Cancer, SW-620): 0.81 µM
GI50 (NCI-60 cancer cell lines; T47D, Breast Cancer, T-47D): 12 µM
GI50 (NCI-60 cancer cell lines; TK-10, Renal Cancer, TK-10): 2.54 µM
GI50 (NCI-60 cancer cell lines; U-251, CNS Cancer, U251): 0.27 µM
GI50 (NCI-60 cancer cell lines; UACC-62, Melanoma, UACC-62): 0.21 µM
GI50 (NCI-60 cancer cell lines; UACC-257, Melanoma, UACC-257): 25.3 µM
mean GI50 across NCI-60 panel (MGM) (NCI-60 cancer cell lines): 1860 nM
Top1 Inhibiton (human topoisomerase I): ++ (medium inhibition, ++, MYC expression inhibited at 2.0 μM, or no clear dose-dependent MYC inhibition)
